From patent US4119653A, “Co-ordination compounds of platinum” (Rustenburg Platinum Mines Limited, priority 1976, dated 1978)

Assays:
ADJ/PC6 tumour = test: Antitumour test, ADJ/PC6 tumour, arachis oil intraperitoneal; type: in vivo, Balb-c white mice
Text: Vehicle: Arachis oil/Intraperitoneal
Subject: Balb-c white mice
(§1) Again as with the results given earlier, the tumour was ADJ/PC6, the vehicle was Arachis oil administered intraperitoneally to Balb-c white mice.

Balb-c white mice = test: Toxicity (LD50 / deaths), arachis oil intraperitoneal
Text: Vehicle: Arachis oil/Intraperitoneal
Subject: Balb-c white mice
as §1

Row | Structure (SMILES) | inhib (ADJ/PC6 tumour; table 9, line under Cl4 n-octyl, dose not stated) | LD50 (Balb-c white mice; table 9) | % Inhibition (ADJ/PC6 tumour; dose 12 mgm/Kgm, Balb-c mice) | % Inhibition (ADJ/PC6 tumour; dose 60 mgm/Kgm, Balb-c mice) | ED90 (ADJ/PC6 tumour; table 1, doses in mgm/Kgm, Balb-c mice) | LD50 (Balb-c white mice; table 1, doses in mgm/Kgm)
1 | CCCCCCCCN.CCCCCCCCN.[Cl][Pt]([Cl])([Cl])[Cl] [Cl4 n-octyl] | < 20% | 270 mg/kg |  |  |  | 
2 | [NH2][Pt]([NH2])([OH])([OH])([Cl])[Cl] [trans di-hydroxo complexes of Pt(IV)] |  |  | 95.4% | 97.1% | < 12 mg/kg | 135 mg/kg
